Assay results from patent US8853282B1, “Topical liquid insecticide compositions” (priority 2014, dated 2014).
Converted amounts (≈) assume the structure as drawn.

How the values were obtained:
[1] = cited from earlier work
ticks = conditions: cited from earlier work
fleas = conditions: cited from earlier work
[2] = Solubility in aprotic polar solvents; assay type: physicochemical
Source text: Dinotefuran is a hydrophilic compound that will dissolve in water (approx. 40 g/L). While dinotefuran is most preferred, nitenpyram is highly hydrophilic and could be used in formulations where higher levels of neo-nicotinoid would be desirable. The ether pyrethroid etofenprox will dissolve in some aprotic polar solvents to provide up to 40-60 weight percent while most ester pyrethroids had little solubility. Other ether pyrethroids may be useful provided they have insecticidal activity and may be desirable because of cost and relatively low hydrophobicity.

felines = conditions: cited from earlier work

In the case of `C/C(=N\C#N)N(C)Cc1ccc(Cl)nc1` [Acetamiprid], the “Water Solubility” value [1] is given as 2.95 mg/mL.

For `CN/C(=N/CC1CCOC1)N[N+](=O)[O-]` (centres unmarked) [Dinotefuran], the “Water Solubility” value [1] is listed as 39.83 mg/mL, the dissolve in water [1] is listed as “approx. 40 g/L” and the kill of ticks (ticks) is listed as “not ticks”. For the same compound, the kill of fleas (fleas) was “will kill fleas”.

For `CCOc1ccc(C(C)(C)COCc2cccc(Oc3ccccc3)c2)cc1` [Etofenprox], the solubility in water [1] is listed as 0.001 mg/mL (≈ 2.66 µM), the kill of ticks (ticks) is listed as “will kill both fleas and ticks” and the “dissolves in some aprotic polar solvents” value [2] is listed as 40-60 weight percent. The kill of fleas (fleas) was “will kill both fleas and ticks” and the toxicity to felines (felines) was “not toxic to felines”.

In the case of `CCN(Cc1ccc(Cl)nc1)/C(=C/[N+](=O)[O-])NC` [Nitenpyram], the “Water Solubility” value [1] is listed as 840 mg/mL.
